# Assay results as given in ChEMBL document CHEMBL1142425, “Bromophenols from the marine red alga Polysiphonia urceolata with DPPH radical scavenging activity” (J Nat Prod, 2008).
# Assay: DPPH radical scavenging activity
# Type: functional
row,Structure (SMILES),IC50 [µM]
1,Oc1cc2c(cc1O)-c1c(cc(Br)c(O)c1O)CC2,6.8
2,Cc1cc(C(C)(C)C)c(O)c(C(C)(C)C)c1 [BUTYLATED HYDROXYTOLUENE],83.8
3,CO[C@@H]1Oc2c(O)c(Br)cc3c2-c2c1cc(Br)c(O)c2O[C@H]3OC [URCEOLATOL],15.1

# The next lines start with the values.
row,IC50 [µM],Structure (SMILES)
1,20.3,O=Cc1cc(O)c(O)c(Br)c1
2,35.8,O=Cc1cc(Br)c(O)c(Br)c1
3,8.1,Oc1cc2c(c(Br)c1O)COCc1cc(O)c(O)c(Br)c1-2
4,6.1,Oc1cc2c(c(Br)c1O)-c1c(cc(Br)c(O)c1O)CC2
